Reference: patent US11065275B2, “Cross-linking agents and associated methods” (University of Utah Research Foundation, priority 2016, dated 2021)
Like-named read-outs stand apart in the source and are kept apart here.

Tests used:
[1] = system: lysyl oxidase (LOX); conditions: 0.0016 mg/mL CuSO4 in BSS vs BSS control
Method: As a parallel assay, we added 500 uM aminopropionitrile (BAPN) which can diminish LOX activity completely. The fluorescence of oxidized Amplex red was recorded every 10 minutes using fluorescence plate reader.

[2] = system: Human Keratoconus Cornea; conditions: corneas treated 1 week with 0.0016 mg/ml CuSO4 vs untreated, HPLC
Method: Each Human Keratoconus Cornea was bisected. One half was treated with 0.0016 mg/ml CuSo4 in Optisol solution for 1 week and other half was left untreated. After one week each cornea was kept in negative 80° C. for future analysis.
The cornea samples were washed with PBS pH 7.4 and powdered in liquid nitrogen and pulverized with a Freezer Mill. Cornea samples were demineralized with 0.5 M EDTA in 0.05 M Tris buffer, pH 7.4, for 48 h at 4° C. The insoluble fraction was washed twice with distilled water by centrifugation at 5000 g at […] for 20 min and lyophilized. The lyophilized sample was hydrolyzed with constantly boiling redistilled 6 N HCl in vacuo for 24 h at 110° C. The hydrolysate was neutralized with 2.5 N NaOH and dissolved in distilled water. Analyses were performed for Lysinonorleucine (LNL) and Histidinohydroxylysinonorleucine (HHL) separately by HPLC.
Amino acid analysis is an important application area in protein chemistry and food analysis. Many different applications exist in this field. Automated pre-column derivatization followed by reverse phase LC has become a useful procedure for efficient analysis, since it is an easy and simple to use technique. An Agilent 1290 Infinity LC System was used with automated pre-column derivatization for fast and sensitive analysis of Lysinonorleucine (LNL). The column used for this method is Agilent ZORBAX Eclipse Plus RRHD C18 (3.0 mm×50 mm, 1.8 μm) and Mobile phase consisted of Solvent A: 10 mM disodium phosphate+10 mM sodium tetraborate pH 8.2 and Solvent B: ACN/MeOH/H2O (45:45:10)
To […] of the protein hydrolysate sample (less than 3 mM as the total amino acid concentration), 50 μl of 1.5 mM Ne-methyl-L-lysine hydrochlo ide (Mly) in 0.26 M borate buffer, pH 9.5, and 50 μl of acetone were added in a 1.5-ml reaction vial. Then 25 μl of FMOC-Cl reagent (6 mM FMOC-Cl in acetone) was added and the mixture was allowed to react for 2 min at room temperature. The reaction mixture was extracted twice with […] of pentane to remove excess FMOC-Cl reagent. The aqueous phase was subjected to chromatography.
Cornea cross-linking is tissue specific. The predominant cross-links generated in the human cornea are lysinonorleucine (LNL). LNL are the building blocks for subsequent multivalent cross-links such as the histidinyl-hydroxylysinonorleucine (HHL). Normal and keratoconic human corneas were treated for 1 week with 0.0016 mg/ml CuSO4. Then, an HPLC analysis was performed to measure levels of LNL (FIGS. 2A-2C) and HHL (FIGS. 3A-3C).

[3] = system: human cadaver corneas and rabbit corneas
Method: Cornea radial strain measurements were performed on human cadaver corneas and on rabbit corneas. Human cadaver corneas (n=2 pairs) were cultured as previously mentioned in Example 1. The treated group was immersed in 0.0016 mg/ml CuSO4 for 2 weeks. The samples also contained a small portion of sclera at both ends. Mineral oil was applied on the surface of the sclera-cornea-sclera strip to minimize tissue dehydration. Rabbit corneas were divided into 4 groups. Two groups were treatment groups receiving either CuSO4 0.0025 mg/ml three times per day or CuSO4 0.0025 mg/ml once per day. Two groups served as control receiving only BSS.
The sample was coupled between a motor and a transducer that applied a controlled pressure from 5-30 mmHg and measured the resultant radial strain. The sample length between the two gripping jaws was approximately 10 mm. Sample geometric information, including width and thickness, was input into the Rheometrics System Analyzer (RSA) control panel. Sample thickness was measured by an ultrasound pachymeter (DGH 550 Pa-chette2; DGH Technology, Exton, Pa.).

[4] = system: cornea of New Zealand white rabbits; conditions: 0.0025 mg/ml once or three times per day, 0.025 mg/ml once per day; weekly for 5 weeks; mean K and at 3 mm
Method: Copper sulfate (CuSO4) at 0.0025 mg/ml was administered to New Zealand white rabbits at a dose of once per day and three times per day. Additionally, a high concentration sample of 0.025 mg/ml was administered to New Zealand with rabbits once per day during the treatment period. Three different controls were administered either no drops, BSS, or artificial tears. Each of the 6 groups included 6 test subjects each. Topography images were taken before treatment and weekly for 5 weeks. Diopter measurements were the mean K values and at 3 mm. These values were compared to diopter measurements in laser cross-linked corneas after 1 month and 1 year.

[5] = system: rabbits; conditions: 0.0025 mg/ml TID or QD
Method: Copper sulfate (CuSO4) solution was prepared at a concentration of 0.0025 mg/ml and administered three times a day (TID) or once a day (QD) to rabbits. An anterior segment evaluation was performed with slit-lamp biomicroscopy and Heidelberg Spectralis anterior segment optical coherence tomography (AS-OCT). Two rabbits (n=4 eyes) were sacrificed at each of day 1, week 1, week 4, and week 6 for copper levels in eye tissues and compared to control (no drops) rabbits. Aqueous humor, vitreous, retina, cornea, lens, and blood samples were analyzed for copper ions using inductively coupled plasma mass spectrometry (ICP-MS).
Rabbits (n=2) were sacrificed after 42 days by intravenous injection of 0.3 ml/kg euthanasia solution and the eyes were enucleated for histological evaluations and reading for signs of inflammation, tissue damage, scarring and fibrosis. The anterior section of the eyes were fixed in 10% formaldehyde-glutaraldehyde solution, dehydrated in a graded series of alcohol, embedded in paraffin, and sectioned with a microtome. The sections were stained with appropriate staining (hematoxylin and eosin and Masson Trichrome).

## O=S(=O)([O-])[O-].[Cu+2] [CuSO4, copper (II) sulfate]
[1]; keratoconus corneal fibroblast cells
  lox enzyme activity: dramatically increased
[1]; normal corneal fibroblast cells
  lox enzyme activity: dramatically increased
[2]
  HHL (histidinyl-hydroxylysinonorleucine) cross-link levels: HHL cross-links are also observed
  LNL (lysinonorleucine) cross-link levels: LNL cross-links were observed
[2]; listed as copper
  HHL (histidinyl-hydroxylysinonorleucine) cross-link levels: significant increase
  LNL (lysinonorleucine) cross-link levels: significant increase
[3]; after copper sulfate treatment vs untreated (FIG. 4)
  corneal stiffness: marked increase
[3]; at 20 mmHg
  average peak radial strain induced by ocular pulse, treated vs untreated corneas: about 1.5 times lower
[3]; compared with laser cross-linking (FIG. 5)
  corneal biomechanics: comparable to that seen with laser cross-linking
[3]; from radial strain at 20 mmHg, treated vs untreated
  increase in corneal strength: ~50%
[4]
  decrease in diopter measurements vs control groups: greater decrease
[5]
  corneal haze: no observed corneal haze
  effect on electroretinography (ERG) measurements: no effect
[5]; histology after 6 weeks
  toxicity in dissected eye tissues: no observed toxicity
